Laboratory results taken from EP0330353A1, “Tetrazole excitatory amino acid receptor antagonists” (ELI LILLY AND COMPANY, priority 1988, dated 1989).
Read-outs that look alike come from different tables or passages of the source.

Assays:
NMDA = assay: In vivo NMDA-induced lethality in mice; design: species or system Male Charles River CF1 mice; conditions: for minimal effective dose: Mus musculus, 20 min, read-out: MED
Procedure: A typical receptor substance is characterized by N-methyl-D-aspartic acid (NMDA).
Male Charles River CF1 mice held in the laboratory for a minimum of three days were housed, 12 per cage, on sawdust bedding in clear plastic boxes with wire mesh lids. Animals were allowed full access to feed and water prior to testing.
Unless otherwise specified, all test compounds were formulated in dimethylsulfoxide (DMSO) and diluted to a 5% DMSO/sterile water solution by volume. Dosing began at 160 mg/kg. If any significant activity was detected, the test drug dose was divided in half until no more activity was detected. All test compounds were administered using the intraperitoneal injection (i.p.) route at a volume of 0.01 cc/gm.
Five mice were taken from the plastic cages, dosed with the test compound and placed individually in clear plastic observation cages. After a 30 minute drug absorption period, the mice were injected intra-peritoneally with 200 mg/kg of NMDA. This dose of NMDA produces death in more than 95% of control-treated animals. Twenty minutes after the NMDA injection the animals were scored as dead or alive. Data are reported as the minimum effective dose (MED) to block NMDA-induced lethality. Protection from lethality is met by the survival of at least three of the five animals. Data for AP5 and AP7, known excitatory amino acid antagonists, are provided for comparison.

NMDA receptors = assay: NMDA-induced seizures in neonatal rats; format: in vivo, neonatal (7 to 8 days old) Sprague-Dawley rats; conditions: lowest dose preventing NMDA-induced seizures in at least 3 of 5 neonatal rats; test drug i.p. in saline 30 min before NMDA 20 mg/kg i.p.; observed 30 min
Procedure: In another experiment, male or female neonatal (7 to 8 days old) Sprague-Dawley rats were removed from the dam and placed in plastic observation chambers that were maintained at 30-32°C. All test drugs were dissolved in normal saline. Activation of NMDA receptors in these rats leads to a readily observable generalized motor seizure in over 95% of the animals.
Animals were injected by the intraperitoneal route with the test drug (1 ml/100 g of body weight) and observed for a 30 minute period for seizure (potential agonist) activity. They were then injected with NMDA at a dose of 20 mg/kg body weight i.p. to test for antagonist activity. […] Generally, five animals were used at each dose of compound. […] The minimum effective dose was the lowest test dose which prevented NMDA-induced seizures in at least three out of five animals.

[1] = minimum effective dose to block NMDA-induced lethality (survival of at least 3 of 5 mice), test compound i.p. 30 min before 200 mg/kg NMDA i.p., scored 20 min after NMDA

Row | Compound | minimal effective dose (NMDA; [1]) | also measured
1 | O=C(O)[C@H]1C[C@@H](CCc2nn[nH]n2)CCN1 (racemic) [Example 1, cis-(±)-4-[2-(1(2)H-Tetrazol-5-yl)ethyl]-2-piperidinecarboxylic acid] | 20 mg/kg | 
2 | O=C(O)[C@H]1C[C@@H](CCCc2nn[nH]n2)CCN1 (racemic) [Example 2, cis-(±)-4-[3-(1(2)H-Tetrazol-5-yl)propyl]-2-piperidinecarboxylic acid] | 10 mg/kg | 
3 | O=C(O)[C@H]1C[C@@H](Cc2nn[nH]n2)CCN1 (racemic) [Example 3, cis-(±)-4-[(1(2)H-Tetrazol-5-yl)methyl]-2-piperidinecarboxylic acid] | 10 mg/kg | 
4 | O=C(O)C1C/C(=C\c2nn[nH]n2)CCN1 (racemic) [Example 4, Z-(±)-4-[(1(2)H-Tetrazol-5-yl)methylidene]-2-piperidinecarboxylic acid] | 20 mg/kg | 
5 | CCCCOC(=O)[C@H]1C[C@@H](Cc2nn[nH]n2)CCN1 (racemic) [Example 5, Butyl cis-(±)-4-[(1(2)H-tetrazol-5-yl)methyl]-2-piperidinecarboxylate] | 160 mg/kg | 
6 | CCOC(=O)C1CC(Cc2nn[nH]n2)CCN1 (racemic) [Example 6, Ethyl cis-(±)-4-[(1(2)H-tetrazol-5-yl)methyl]-2-piperidinecarboxylate] |  | MED (NMDA receptors): 200 mg/kg
7 | NC(CCCP(=O)(O)O)C(=O)O (stereo not drawn) [AP5, reference compound] | 80 mg/kg | 
8 | NC(CCCCCP(=O)(O)O)C(=O)O (stereo not drawn) [AP7, reference compound] |  | minimal effective dose (NMDA): 160 mg/kg
9 | cis-(±)-4-[(1(2)-Methyl-1(2)H-tetrazol-5-yl)methyl]-2-piperidinecarboxylic acid [Example 7] |  | MED (NMDA; [1]): 160 mg/kg
